Laboratory results as given in PMC9858543, “Design, synthesis and evaluation of 2, 6, 8-substituted Imidazopyridine derivatives as potent PI3Kα inhibitors” (Journal of Enzyme Inhibition and Medicinal Chemistry, 2023).

Experiments:
NCI-H1975 = experiment: Cell proliferation assay (CellTiter-Glo), NCI-H1975; assay type: cell-based; settings: Homo sapiens, 72 h exposure, mean ± SD of two experiments
Experimental: (§1) Given the desirable enzyme activity profile, these compounds were further assayed for their antiproliferative activities against five independent human tumour cell line collections harbouring PIK3CA mutation, including human ovarian cancer cell line SKOV-3, human breast cancer T47D and MCF-7, human lung cancer H1975 and H460. […] In general, the cellular activity of tested derivatives corrected with their effects on kinase activity.
(§2) All target compounds were evaluated for antiproliferative potency against SKOV-3, T47D,NCI-H1975, NCI-H460,and MCF-7 tumour cell lines using a CellTiter-Glo® Luminescent Cell Viability Assay. The human tumour cell lines used were obtained from the ATCC or Shanghai ZhongQiaoXinZhou Biotech. All the mediums and FBS were Gibco. T47D, H1975 and NCI-H460 tumour cells were cultured in RPMI1640 medium supplemented with 10% FBS. SKOV-3 was cultured in McCoy’s 5 A medium supplemented with 10%FBS. The day before treatment with compounds, cells were seeded at a density of 2000 or 5000 in each well of a 96-well plate. The tumour cells were then treated with 3-fold serial diluted compound or DMSO control in the incubator at 37 °C and 5% CO2 for 3 days, prior to the addition of CellTiter-Glo reagents (Promega) and reading of luminescence using a PerkinElmer Envision plate reader. Data were analysed using GraphPad Prism 7.0.

SKOV-3 = experiment: Cell proliferation assay (CellTiter-Glo), SKOV-3; assay type: cell-based; settings: Homo sapiens, SK-OV-3; 72 h exposure; mean ± SD of two experiments
Experimental: as §1, §2

NCI-H460 = experiment: Cell proliferation assay (CellTiter-Glo), NCI-H460; assay type: cell-based; settings: Homo sapiens, 72 h exposure, mean ± SD of two experiments
Experimental: as §1, §2

MCF-7 = experiment: Cell proliferation assay (CellTiter-Glo), MCF-7; assay type: cell-based; settings: Homo sapiens, MCF7; 72 h exposure; mean ± SD of two experiments
Experimental: as §1, §2

T47D = experiment: Cell proliferation assay (CellTiter-Glo), T47D; assay type: cell-based; settings: Homo sapiens, 72 h exposure, mean ± SD of two experiments
Experimental: as §1, §2

PI3Kα = molecular target: T1, PI3Kα (Homo sapiens, UniProt P42336); experiment: In vitro PI3Kα enzymatic assay (ADP-Glo / Kinase-Glo, ATP 25 μM); assay type: biochemical; settings: ATP 25 μM; for IC50: mean ± SD of two experiments; for inhibition at 10 µM: PI3Kα, compound 10 μM, mean ± SD of three determinations, read-out: % Inhibition at 10 μM
T1 construct: purchased Invitrogen
T1 sequence (P42336 whole entry): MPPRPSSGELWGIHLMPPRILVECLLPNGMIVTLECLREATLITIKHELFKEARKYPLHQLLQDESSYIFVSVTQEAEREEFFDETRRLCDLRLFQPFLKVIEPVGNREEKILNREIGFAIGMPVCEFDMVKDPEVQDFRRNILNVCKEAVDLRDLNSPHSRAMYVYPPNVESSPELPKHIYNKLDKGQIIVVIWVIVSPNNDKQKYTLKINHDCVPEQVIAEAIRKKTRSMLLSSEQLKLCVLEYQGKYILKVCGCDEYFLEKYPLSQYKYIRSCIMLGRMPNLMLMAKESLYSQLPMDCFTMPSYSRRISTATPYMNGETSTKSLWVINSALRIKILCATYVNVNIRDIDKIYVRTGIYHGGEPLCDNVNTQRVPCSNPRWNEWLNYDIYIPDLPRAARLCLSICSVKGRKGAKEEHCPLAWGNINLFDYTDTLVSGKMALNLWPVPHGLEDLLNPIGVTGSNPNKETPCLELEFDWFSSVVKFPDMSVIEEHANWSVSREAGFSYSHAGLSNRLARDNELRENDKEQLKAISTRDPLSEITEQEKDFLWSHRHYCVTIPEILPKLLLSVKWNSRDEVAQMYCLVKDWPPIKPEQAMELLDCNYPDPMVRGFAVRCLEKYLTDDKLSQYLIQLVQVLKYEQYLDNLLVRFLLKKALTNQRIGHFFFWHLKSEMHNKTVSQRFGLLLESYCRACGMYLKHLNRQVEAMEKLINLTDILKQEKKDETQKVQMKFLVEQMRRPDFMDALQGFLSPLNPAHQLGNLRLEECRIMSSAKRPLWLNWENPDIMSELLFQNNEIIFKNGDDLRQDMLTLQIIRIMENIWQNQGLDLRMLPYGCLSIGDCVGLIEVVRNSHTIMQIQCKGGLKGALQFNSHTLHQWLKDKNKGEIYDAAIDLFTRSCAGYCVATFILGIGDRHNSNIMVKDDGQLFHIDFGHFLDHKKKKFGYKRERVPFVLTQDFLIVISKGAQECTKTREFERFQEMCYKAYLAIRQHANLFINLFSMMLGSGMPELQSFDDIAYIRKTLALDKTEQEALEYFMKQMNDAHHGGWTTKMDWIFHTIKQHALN
T1 sequence (P27986 whole entry partner): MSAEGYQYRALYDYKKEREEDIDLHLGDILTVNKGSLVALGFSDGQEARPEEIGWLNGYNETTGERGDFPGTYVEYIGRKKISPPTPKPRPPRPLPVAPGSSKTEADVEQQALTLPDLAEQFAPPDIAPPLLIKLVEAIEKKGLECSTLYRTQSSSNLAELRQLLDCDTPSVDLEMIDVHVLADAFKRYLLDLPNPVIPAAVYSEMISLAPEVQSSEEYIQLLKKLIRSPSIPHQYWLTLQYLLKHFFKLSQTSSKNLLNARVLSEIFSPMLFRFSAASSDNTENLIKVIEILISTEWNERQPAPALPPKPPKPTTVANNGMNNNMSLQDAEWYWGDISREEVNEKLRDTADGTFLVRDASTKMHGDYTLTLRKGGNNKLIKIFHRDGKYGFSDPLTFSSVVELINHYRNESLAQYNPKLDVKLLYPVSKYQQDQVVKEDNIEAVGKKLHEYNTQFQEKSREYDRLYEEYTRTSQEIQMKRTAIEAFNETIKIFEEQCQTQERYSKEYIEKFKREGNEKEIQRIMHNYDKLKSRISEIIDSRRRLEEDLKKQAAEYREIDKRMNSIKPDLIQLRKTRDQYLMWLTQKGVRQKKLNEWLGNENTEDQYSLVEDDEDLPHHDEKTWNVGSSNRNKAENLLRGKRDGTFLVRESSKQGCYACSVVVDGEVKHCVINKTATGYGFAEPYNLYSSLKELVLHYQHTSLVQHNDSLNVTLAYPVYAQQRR
Experimental: To screen the inhibitory activity of the target compounds against PI3Kα, the Kinase-Glo™ assay with ATP at 25 μM was utilised with PIK-75 as positive control. We chose to explore the SARs at three positions on the Imidazo[1,2-a]pyridine core. To start with, a set of 8-position modifications were prepared while keeping the morpholinyl amide substituent on 2-position fixed, since it allowed quick structure − activity profiling via coupling reactions of bromide with aryl borates or boronic acids. […] We then turned our attention back to the phenyl substituents.
Briefly, the compound, PI3K enzyme (PI3Kα from Invitrogen), the PIP2 (Life Technologies) substrate, and ATP (25 μM, Sigma) were diluted in kinase buffer to the indicated concentrations. The assay plate was covered and incubated at room temperature for 1 h. Then, the Kinase-Glo reagent (Promega) was added to the PI3Kα plate to stop the reaction, mixed briefly with centrifuge, shaken slowly on the shaker and then equilibrate for 120 min. Finally, add Kinase detection reagent to each well, shake 1 min, equilibrate for 30 min before reading on a plate reader for luminescence. The data were collected on Envision and presented in Excel. IC50 values were calculated from the inhibition curves.

Cc1nc(NC(=O)N2CCC[C@H]2C(N)=O)sc1-c1ccnc(C(C)(C)C(F)(F)F)c1 [Alpelisib, reference compound]
IC50 (NCI-H1975): 2.7 ± 0.2 µM | IC50 (SKOV-3): 9.7 ± 0.7 µM | IC50 (NCI-H460): 8.9 ± 0.7 µM | IC50 (MCF-7): 2.2 ± 0.3 µM | IC50 (T47D): 0.46 ± 0.05 µM

COc1ncc(-c2cc(C)cn3cc(C(=O)N4CCCC4)nc23)cc1NS(=O)(=O)c1ccc(F)cc1F [Compound 36, 2,4-Difluoro-N-(2-methoxy-5–(6-methyl-2-(pyrrolidine-1-carbonyl)Imidazo[1,2-a]pyridin-8-yl)pyridin-3-yl)benzenesulfonamide]
IC50 (NCI-H1975): > 50 µM | IC50 (PI3Kα): 1120 ± 150 nM | inhibition at 10 µM (PI3Kα): > 85% | IC50 (SKOV-3): 35.3 ± 4.2 µM | IC50 (NCI-H460): 30.2 ± 3.1 µM | IC50 (MCF-7): 8.1 ± 0.8 µM | IC50 (T47D): 15.9 ± 1.5 µM

COc1ncc(-c2cc(C)cn3cc(C(=O)NCCN4CCOCC4)nc23)cc1NS(=O)(=O)c1ccc(F)cc1 [Compound 40, 8–(5-((4-Fluorophenyl)sulfonamido)-6-methoxypyridin-3-yl)-6-methyl-N-(2-morpholinoethyl)Imidazo[1,2-a]pyridine-2-carboxamide]
IC50 (NCI-H1975): 41.4 ± 3.4 µM | IC50 (PI3Kα): 500 ± 110 nM | inhibition at 10 µM (PI3Kα): > 85% | IC50 (SKOV-3): 25.5 ± 3.9 µM | IC50 (NCI-H460): 21.8 ± 1.9 µM | IC50 (MCF-7): 7.6 ± 0.5 µM | IC50 (T47D): 12.5 ± 1.8 µM
